Measured values from publication PMC6918687, “Pharmacological inhibition of TAK1, with the selective inhibitor takinib, alleviates clinical manifestation of arthritis in CIA mice” (Arthritis Research & Therapy, 2019).
pIC50: −log10 of the molar value. Read-outs that look alike come from different tables or passages of the source.

Legend:
[1] = system: CIA mice; experiment: Type II collagen-induced arthritis (CIA) mouse model: clinical arthritis score and body weight; assay type: in vivo, DBA/1 mice; details: for % Inhibition from Vehicle Disease (clinical score AUC): day 36
Procedure: The DBA/1 CIA model was conducted in accordance with The Guide for the Care & Use of Laboratory Animals (8th Edition) and therefore in accordance with all Bolder BioPATH IACUC approved policies and procedures. The Bolder Biopath IACUC approved a “blanket” IACUC protocol for this specific working protocol (BBP-001). No acceptable alternative test systems were identified for the animals used in this study. […] Clinical evaluation was performed under experimenter blinded conditions.
Collagen was prepared as a 4 mg/ml solution in 0.01 N acetic acid. Equal volumes of 4 mg/ml collagen and 5 mg/ml Freund’s complete adjuvant were emulsified by hand mixing with syringes for approximately 5 min, at which point a bead of this material holds its form when placed in water. On study days 0 and 21, animals were anesthetized with isoflurane and given intradermal injections of a total of 400 μg of type II collagen in Freund’s complete adjuvant at the base of the tail.
Mice were randomized by body weight into treatment groups on study day 18. Treatment was initiated following enrollment. On study day 36, the mice were euthanized for necropsy. Clinical scores were given for each of the paws (right front, left front, right rear, left rear) on study days 18–36. Experimenter was blinded from the treatment group during clinical evaluation and scoring.

[2] = Pharmacokinetics of takinib by LC-MS in plasma and tissues; assay type: in vivo, C3-tag mice; details: C3 tagged mice; for half-life: C3-tag, mouse, ip
Procedure: C3-tag mice were injected intraperitoneally (i.p.) with 50/75mpk takinib and sacrificed at 0, 1 h, 2 h, 4 h, 8 h, 16 h, and 24 h. At the indicated time points, the heart, spleen, kidney, liver, tumor, blood, plasma, muscle, and lung were harvested. All samples were frozen and stored at − 80 °C. Before quantifying the takinib in serum, a standard curve was constructed using HS-219, a close structural analog of takinib that serves as an internal standard. This internal standard solution was used for tissue homogenization. LC-MS analysis was performed at the Duke Proteomics and Metabolomics Core Facility. The final concentration of takinib in the plasma was calculated per milliliter of plasma.
GraphPad Prism 7 was used for statistical analysis of clinical score comparisons, histological analysis, and plasma concentrations. Two-way ANOVA followed by Dunnett’s multiple comparison test was performed for mean clinical score sum (Fig. 1); weight change over time (Fig. 1); joint score sum for all joints, knees, and forepaw and hind paw (Figs. 2, 3); protein analysis (Figs. 5, 6); and cell survival (Fig. 6g). A linear regression of LC-MS data on takinib was used for PK studies. T½ was determined by non-linear one-phase decay curves. Student T tests were performed for periosteal bone width (Additional file 1: Figure S2) and cell survival (Fig. 6f, g). An alpha of 0.05 was used for all statistical analysis.

[3] = system: RA-FLS cells; experiment: NF-κB signaling protein array, TNF-stimulated RA-FLS cells; assay type: cell-based, human; details: TNF 30 ng/mL 24 h
Procedure: (§1) Rheumatoid arthritis fibroblast-like synoviocytes (RA-FLS) cells were prepared from surgical synovial samples at the University of Michigan as previously described. Cells were isolated from 4 individual patients (3 female, 1 male) and passaged no more than 2 times before use. Cells were cultured in CRML media, 10% FBS, 1% penicillin-streptomycin (PS), and 1% glutamate.
(§2) Briefly, 10^6 cells were plated and either no treatment (naïve) or pretreated with takinib (10 μM) or vehicle (DMSO) for 30 min prior to stimulation with TNF (30 ng/mL) for 30 min at 37 °C in 5% CO2 for phospho-kinase assay (R&D Systems). NF-κB and cytokine assays were performed as previously described; however, cells were incubated for 24 h post-TNF (30 ng/mL) or LPS (10 ng/mL) stimulation.

[4] = system: RA-FLS cells; experiment: Cytokine/chemokine proteome array, TNF-stimulated RA-FLS cells; assay type: cell-based, human; details: takinib 10 μM, TNF 30 ng/mL 24 h
Procedure: as §1
RA-FLS cells were activated by addition of LPS 10 ng/mL in the presence or absence of 10 μM takinib or DMSO. Twenty-four hours after treatment, supernatant was added to Human Cytokine proteome array (R&D Systems). Cytokine kit was conducted in accordance with manufacturer protocol. Chemiluminescence was used to visualize protein quantities.
as §2

[5] = system: TAK1; details: read-out: potency as inhibitor of TAK1; cited from earlier work

- half-life ([2]; heart, 50 mg/kg, 50 mpk i.p., read-out: half-life, heart (converted)): 16 min
- half-life ([2]; heart, 75 mg/kg, 75 mpk i.p., read-out: half-life, heart (converted)): 14.4 min
- half-life ([2]; muscle, 50 mg/kg, 50 mpk i.p., read-out: half-life, muscle (converted)): 8.82 min
- half-life ([2]; muscle, 75 mg/kg, 75 mpk i.p., read-out: half-life, muscle (converted)): 5.64 min
- half-life ([2]; plasma, 50 mg/kg, 50 mpk i.p., read-out: half-life, plasma (converted)): 15.4 min
- half-life ([2]; plasma, 75 mg/kg, 50 or 75 mg/kg i.p., read-out: plasma (serum) clearance t½): 21 min
- half-life ([2]; plasma, 75 mg/kg, 75 mpk i.p., read-out: half-life, plasma (converted)): 28.2 min
- half-life ([2]; spleen, 50 mg/kg, 50 mpk i.p., read-out: half-life, spleen (converted)): 279 min
- half-life ([2]; tumor, 50 mg/kg, 50 mpk i.p., read-out: half-life, tumor (converted)): 22.1 min
- half-life ([2]; tumor, 75 mg/kg, 75 mpk i.p., read-out: half-life, tumor (converted)): 9.94 min
- half-life, spleen ([2]; 50 mpk i.p., 50 mg/kg): 277.6 min
SMILES: CCCn1/c(=N/C(=O)c2cccc(C(N)=O)c2)[nH]c2ccccc21 [takinib]
- % Inhibition from Vehicle Disease (clinical score AUC) ([1]; CIA DBA/1 mice, takinib 50 mg/kg i.p. daily): 32%
- % Inhibition from Vehicle Disease (clinical score AUC) ([1]; CIA DBA/1 mice, takinib 50 mg/kg i.p. daily, listed as Takinib): 32% (p=0.08)
- Mean Clinical Arthritic Score (AUC) ([1]; CIA DBA/1 mice, takinib 50 mg/kg i.p. daily, evaluated at day 36): 14.19
- less overall body weight loss compared to vehicle control ([1]; CIA mice, 50 mg/kg i.p. daily, at termination of the study, p = 0.009): 50%
- mean daily clinical arthritis scores vs vehicle disease control ([1]; CIA mice, 50 mg/kg i.p. daily, days 30–36): significantly differed
- ASC expression, array signal, Mean ([3]; takinib 10 μM, n=4): 29.77
- BCL10 expression, array signal, Mean ([3]; takinib 10 μM, n=4): 15.76
- CARD6 expression, array signal, Mean ([3]; takinib 10 μM, n=4): 15.29
- CD40/TNFRSFS expression, array signal, Mean ([3]; takinib 10 μM, n=4): 23.956
- FADD/MORT1 expression, array signal, Mean ([3]; takinib 10 μM, n=4): 36.45
- Fas/TNFRSF6/CD95 expression, array signal, Mean ([3]; takinib 10 μM, n=4): 172.1241
- IKK1/IKKα/CHUK expression, array signal, Mean ([3]; takinib 10 μM, n=4): 55.68
- IKK2/IKKβ expression, array signal, Mean ([3]; takinib 10 μM, n=4): 112.6481
- IKKγ/NEMO expression, array signal, Mean ([3]; takinib 10 μM, n=4): 107.307
- IL-1 RI expression, array signal, Mean ([3]; takinib 10 μM, n=4): 21.68
- IL-17 RA expression, array signal, Mean ([3]; takinib 10 μM, n=4): 19.1835
- IL-18 Rα expression, array signal, Mean ([3]; takinib 10 μM, n=4): 17.5855
- IRAK1 expression, array signal, Mean ([3]; takinib 10 μM, n=4): 26.78
- IRF5 expression, array signal, Mean ([3]; takinib 10 μM, n=4): 16.411
- IRF8 expression, array signal, Mean ([3]; takinib 10 μM, n=4): 17.251
- IkBα expression, array signal, Mean ([3]; takinib 10 μM, n=4): 33.4
- IkBε expression, array signal, Mean ([3]; takinib 10 μM, n=4): 178.592
- JNK1/2 expression, array signal, Mean ([3]; takinib 10 μM, n=4): 19.76
- JNK2 expression, array signal, Mean ([3]; takinib 10 μM, n=4): 17.3675
- LTBR/TNFRSF3 expression, array signal, Mean ([3]; takinib 10 μM, n=4): 22.136
- MYD88 expression, array signal, Mean ([3]; takinib 10 μM, n=4): 36.28
- Metadherin/AEG-1 expression, array signal, Mean ([3]; takinib 10 μM, n=4): 31.01
- NFκB1 expression, array signal, Mean ([3]; takinib 10 μM, n=4): 66.143
- NFκB2 expression, array signal, Mean ([3]; takinib 10 μM, n=4): 136.3483
- NGF R/TNFRSF16 expression, array signal, Mean ([3]; takinib 10 μM, n=4): 16.68
- RelA/p65 (pS529) array signal, Mean ([3]; takinib 10 μM, n=4): 41.57
- RelA/p65 expression, array signal, Mean ([3]; takinib 10 μM, n=4): 55.81
- SHARPIN expression, array signal, Mean ([3]; takinib 10 μM, n=4): 17.06
- SOCS6 expression, array signal, Mean ([3]; takinib 10 μM, n=4): 64.37
- STAT1 (pY701) array signal, Mean ([3]; takinib 10 μM, n=4): 15.5275
- STAT1p91 expression, array signal, Mean ([3]; takinib 10 μM, n=4): 116.4024
- STAT2 (pY689) array signal, Mean ([3]; takinib 10 μM, n=4): 15.96
- STAT2 expression, array signal, Mean ([3]; takinib 10 μM, n=4): 148.6364
- STING/TMEM173 expression, array signal, Mean ([3]; takinib 10 μM, n=4): 106.8409
- TLR2 expression, array signal, Mean ([3]; takinib 10 μM, n=4): 15.725
- TNF RI/TNFRSF1A expression, array signal, Mean ([3]; takinib 10 μM, n=4): 14.7
- TNF RII/TNFRSF1B expression, array signal, Mean ([3]; takinib 10 μM, n=4): 18.3335
- TRAF2 expression, array signal, Mean ([3]; takinib 10 μM, n=4): 17.884
- TRAIL R1/DR4 expression, array signal, Mean ([3]; takinib 10 μM, n=4): 21.6
- TRAIL R2/DR5 expression, array signal, Mean ([3]; takinib 10 μM, n=4): 91.34
- c-Rel expression, array signal, Mean ([3]; takinib 10 μM, n=4): 16.52
- clAP1/BIRC2 expression, array signal, Mean ([3]; takinib 10 μM, n=4): 25.47
- clAP2/BIRC3 expression, array signal, Mean ([3]; takinib 10 μM, n=4): 18.82
- p53 (pS46) array signal, Mean ([3]; takinib 10 μM, n=4): 14.94
- p53 expression, array signal, Mean ([3]; takinib 10 μM, n=4): 17.85
- number of NF-κB signaling proteins significantly altered ([3]; takinib, out of 45 profiled): 20
- GROα (CXCL1) secretion ([4]; p < 0.002): reduced
- ICAM secretion ([4]; p < 0.03): reduced
- G-CSF secretion ([4]; p < 0.04): reduced
- MIP-1α/MIP-1β secretion ([4]; p = 0.11): modest change
- pIC50 [5]: ~8.05
